The values that follow are results of earlier work, collected in patent US7807682B2, “Pyridyl cyanoguanidine compounds” (Leo Pharma A/S, priority 2001, dated 2010).

Data set [1] deals with normal human endothelial cells.
A further data set deals with human tumour cells. The following applies: nude mice transplanted with human tumour cells, also paclitaxel-resistant tumour cells.

As to `N#CNC(=Nc1ccncc1)NCCCCCCOc1ccc(Cl)cc1` [N-(6-(4-chlorophenoxy)hexyl)-N′-cyano-N″-(4-pyridyl)guanidine], the “antiproliferative activity on normal human endothelial cells” value in data set [1] is given as “considerably less antiproliferative activity”. Further, in the data set on human tumour cells, the “antitumour activity in vivo” value is reported as “substantial antitumour activity”.
